# Measured values from patent US8444972B2, “Antitumor antibodies, proteins, and uses thereof” (University of Massachusetts, priority 1999, dated 2013).
# Test system: E710.2.3
# Experiment: Homotypic aggregation assay
substance,measurement,value
Paraformaldehyde,HOMOTYPIC ADHESION induced by DMF10.62.3 in presence of chemical,inhibited
